Results taken from patent US5714576A, “Linear analogs of alpha-msh fragments” (Competitive Technologies, Inc., priority 1997, dated 1998).
Like-named read-outs stand apart in the source and are kept apart here. Positions of bridges follow the written chain, without caps; N, C: chain ends. Non-standard residues stand in square brackets, D forms with d. Residues, ends and D or L forms follow the SMILES beside them. Nle = CCCC[C@H](N)C(=O)O; Dab = NCC[C@H](N)C(=O)O

Assays:
Frog (Rana pipiens) Skin = format: cell-based
Procedure: (§1) The biological potencies of alpha-MSH, the linear and cyclic analogues were determined by their ability to stimulate melanosome dispersion in vitro in the frog and lizard bioassays. This in vitro assay provides clear cut dose response curves (between 2.5×10^-11 and 4×10^-10 M) and can detect minimal concentration of alpha-MSH of about 10^-11 M. The assay is based upon the centrifugal dispersion of melanosomes (melanin granules) within the dendritic processes of integumental dermal melanophores leading to darkening of the skin. All the test solutions were prepared via serial dilutions from a stock solution (10^-4 M). The frogs (Rana pipiens) used in these evaluations were obtained from Kons Scientific, Germantown, Wis., and the lizards (Anolis carolinensis) were from the Snake Farm, La Place, La.

[1] = system: Lizard (Anolis carolinensis) Skin; format: cell-based; conditions: for Residual Activity Lizard (prolonged action): linear analogues
Procedure: as §1

[2] = cyclic analogues, alpha-MSH = 1.0

| SMILES | Biological Potency Frog (Frog (Rana pipiens) Skin) | Residual Activity Frog (prolonged action) (Frog (Rana pipiens) Skin; linear analogues) | Biological Potency Lizard [1] | Residual Activity Lizard (prolonged action) [1] | Residual Activity Frog (prolonged action) (Frog (Rana pipiens) Skin; cyclic analogues) | Biological Potency Frog (Frog (Rana pipiens) Skin; [2]) |
| --- | --- | --- | --- | --- | --- | --- |
| CCCC[C@H](NC(=O)[C@H](CO)NC(=O)[C@H](Cc1ccc(O)cc1)NC(=O)[C@H](CO)NC(C)=O)C(=O)N[C@@H](CCC(=O)O)C(=O)N[C@@H](Cc1c[nH]cn1)C(=O)N[C@H](Cc1ccccc1)C(=O)N[C@@H](CCCNC(=N)N)C(=O)N[C@@H](Cc1c[nH]c2ccccc12)C(=O)N[C@@H](CCCCN)C(=O)NCC(=O)N1CCC[C@H]1C(=O)N[C@H](C(N)=O)C(C)C [Analogue 1] (Ac-SYS[Nle]EH[dF]RWKGPV-NH2) | 6.0 | P(+) | 8.0 | P(-) | – | – |
| CCCC[C@H](NC(=O)[C@H](CO)NC(=O)[C@H](Cc1ccc(O)cc1)NC(=O)[C@H](CO)NC(C)=O)C(=O)N[C@@H](CC(=O)O)C(=O)N[C@@H](Cc1c[nH]cn1)C(=O)N[C@H](Cc1ccccc1)C(=O)N[C@@H](CCCNC(=N)N)C(=O)N[C@@H](Cc1c[nH]c2ccccc12)C(=O)N[C@@H](CCCCN)C(=O)NCC(=O)N1CCC[C@H]1C(=O)N[C@H](C(N)=O)C(C)C [Analogue 2] (Ac-SYS[Nle]DH[dF]RWKGPV-NH2) | 9.0 | P(+) | 8.0 | P(-) | – | – |
| CCCC[C@H](NC(C)=O)C(=O)N[C@@H](CCC(=O)O)C(=O)N[C@@H](Cc1c[nH]cn1)C(=O)N[C@H](Cc1ccccc1)C(=O)N[C@@H](CCCNC(=N)N)C(=O)N[C@@H](Cc1c[nH]c2ccccc12)C(=O)N[C@@H](CCCCN)C(=O)NCC(=O)N1CCC[C@H]1C(=O)N[C@H](C(N)=O)C(C)C [Analogue 3] (Ac-[Nle]EH[dF]RWKGPV-NH2) | 0.8 | P(+) | 8.0 | P(+) | – | – |
| CCCC[C@H](NC(C)=O)C(=O)N[C@@H](CC(=O)O)C(=O)N[C@@H](Cc1c[nH]cn1)C(=O)N[C@H](Cc1ccccc1)C(=O)N[C@@H](CCCNC(=N)N)C(=O)N[C@@H](Cc1c[nH]c2ccccc12)C(=O)N[C@@H](CCCCN)C(=O)NCC(=O)N1CCC[C@H]1C(=O)N[C@H](C(N)=O)C(C)C [Analogue 4] (Ac-[Nle]DH[dF]RWKGPV-NH2) | 1.0 | P(+) | 10.0 | P(+) | – | – |
| CCCC[C@H](NC(C)=O)C(=O)N[C@@H](CC(=O)O)C(=O)N[C@@H](Cc1c[nH]cn1)C(=O)N[C@H](Cc1ccccc1)C(=O)N[C@@H](CCCNC(=N)N)C(=O)N[C@@H](Cc1c[nH]c2ccccc12)C(=O)NCC(N)=O [Analogue 5] | 0.1 | P(-) | 8.0 | P(-) | – | – |
| CCCC[C@H](NC(C)=O)C(=O)N[C@@H](CCC(=O)O)C(=O)N[C@@H](Cc1c[nH]cn1)C(=O)N[C@H](Cc1ccccc1)C(=O)N[C@@H](CCCNC(=N)N)C(=O)N[C@@H](Cc1c[nH]c2ccccc12)C(=O)N[C@@H](CCCCN)C(N)=O [Analogue 6] | 0.2 | P(-) | 8.0 | P(-) | – | – |
| CCCC[C@H](NC(C)=O)C(=O)N[C@@H](CC(=O)O)C(=O)N[C@@H](Cc1c[nH]cn1)C(=O)N[C@H](Cc1ccccc1)C(=O)N[C@@H](CCCNC(=N)N)C(=O)N[C@@H](Cc1c[nH]c2ccccc12)C(=O)N[C@@H](CCCCN)C(N)=O [Analogue 7] | – | – | 8.0 | P(-) | – | – |
| CCCC[C@H](NC(C)=O)C(=O)N[C@@H](CCC(=O)O)C(=O)N[C@@H](Cc1c[nH]cn1)C(=O)N[C@H](Cc1ccccc1)C(=O)N[C@@H](CCCNC(=N)N)C(=O)N[C@@H](Cc1c[nH]c2ccccc12)C(=O)N[C@@H](CCCN)C(N)=O [Analogue 8] | 0.6 | P(-) | 8.0 | P(-) | – | – |
| CCCC[C@H](NC(C)=O)C(=O)N[C@@H](CC(=O)O)C(=O)N[C@@H](Cc1c[nH]cn1)C(=O)N[C@H](Cc1ccccc1)C(=O)N[C@@H](CCCNC(=N)N)C(=O)N[C@@H](Cc1c[nH]c2ccccc12)C(=O)N[C@@H](CCCN)C(N)=O [Analogue 9] | 0.9 | – | 10.0 | P(-) | – | – |
| CCCC[C@H](NC(C)=O)C(=O)N[C@@H](CCC(=O)O)C(=O)N[C@@H](Cc1c[nH]cn1)C(=O)N[C@H](Cc1ccccc1)C(=O)N[C@@H](CCCNC(=N)N)C(=O)N[C@@H](Cc1c[nH]c2ccccc12)C(=O)N[C@@H](CCN)C(N)=O [Analogue 10] (Ac-[Nle]EH[dF]RW[Dab]-NH2) | 0.9 | P(±) | 10.0 | P(±) | – | – |
| CCCC[C@H](NC(C)=O)C(=O)N[C@@H](CC(=O)O)C(=O)N[C@@H](Cc1c[nH]cn1)C(=O)N[C@H](Cc1ccccc1)C(=O)N[C@@H](CCCNC(=N)N)C(=O)N[C@@H](Cc1c[nH]c2ccccc12)C(=O)N[C@@H](CCN)C(N)=O [Analogue 11] | 0.9 | P(-) | 50.0 | P(-) | – | – |
| CCCC[C@H](NC(C)=O)C(=O)N[C@@H](CC(=O)O)C(=O)N[C@@H](Cc1c[nH]cn1)C(=O)N[C@H](Cc1ccccc1)C(=O)N[C@@H](CCCNC(=N)N)C(=O)N[C@@H](Cc1c[nH]c2ccccc12)C(=O)N[C@@H](CN)C(N)=O [Analogue 12] | 0.2 | P(-) | 8.0 | P(-) | – | – |
| CCCC[C@H](NC(C)=O)C(=O)N[C@@H](CC(=O)O)C(=O)N[C@@H](Cc1c[nH]cn1)C(=O)N[C@@H](Cc1ccccc1)C(=O)N[C@@H](CCCNC(=N)N)C(=O)N[C@@H](Cc1c[nH]c2ccccc12)C(=O)N[C@@H](CCCCN)C(N)=O [Analogue 14] | – | – | 0.08 | P(-) | – | – |
| CCCC[C@H](NC(=O)[C@H](CO)NC(=O)[C@H](Cc1ccc(O)cc1)NC(=O)[C@H](CO)NC(C)=O)C(=O)N[C@H]1CC(=O)NCCCC[C@@H](C(=O)NCC(=O)N2CCC[C@H]2C(=O)N[C@H](C(N)=O)C(C)C)NC(=O)[C@H](Cc2c[nH]c3ccccc23)NC(=O)[C@H](CCCNC(=N)N)NC(=O)[C@@H](Cc2ccccc2)NC(=O)[C@H](Cc2c[nH]cn2)NC1=O [Analogue 21] (Ac-SYS[Nle]DH[dF]RWKGPV-NH2; lactam 5-10) | – | – | – | – | p(+) | 8.0 |
| CCCC[C@H](NC(=O)[C@H](CO)NC(=O)[C@H](Cc1ccc(O)cc1)NC(=O)[C@H](CO)NC(C)=O)C(=O)N[C@H]1CC(=O)NCCCC[C@@H](C(N)=O)NC(=O)[C@H](Cc2c[nH]c3ccccc23)NC(=O)[C@H](CCCNC(=N)N)NC(=O)[C@@H](Cc2ccccc2)NC(=O)[C@H](Cc2c[nH]cn2)NC1=O [Analogue 22] (Ac-SYS[Nle]DH[dF]RWK-NH2; lactam 5-10) | – | – | – | – | p(+) | 2.0 |
| CCCC[C@H](NC(=O)[C@H](CO)NC(=O)[C@H](Cc1ccc(O)cc1)NC(C)=O)C(=O)N[C@H]1CC(=O)NCCCC[C@@H](C(N)=O)NC(=O)[C@H](Cc2c[nH]c3ccccc23)NC(=O)[C@H](CCCNC(=N)N)NC(=O)[C@@H](Cc2ccccc2)NC(=O)[C@H](Cc2c[nH]cn2)NC1=O [Analogue 23] (Ac-YS[Nle]DH[dF]RWK-NH2; lactam 4-9) | – | – | – | – | p(+) | 0.7 |
| CCCC[C@H](NC(=O)[C@H](CO)NC(C)=O)C(=O)N[C@H]1CC(=O)NCCCC[C@@H](C(N)=O)NC(=O)[C@H](Cc2c[nH]c3ccccc23)NC(=O)[C@H](CCCNC(=N)N)NC(=O)[C@@H](Cc2ccccc2)NC(=O)[C@H](Cc2c[nH]cn2)NC1=O [Analogue 24] (Ac-S[Nle]DH[dF]RWK-NH2; lactam 3-8) | – | – | – | – | p(+) | 1.0 |
| CCCC[C@H](NC(C)=O)C(=O)N[C@H]1CC(=O)NCCCC[C@@H](C(=O)NCC(N)=O)NC(=O)[C@H](Cc2c[nH]c3ccccc23)NC(=O)[C@H](CCCNC(=N)N)NC(=O)[C@@H](Cc2ccccc2)NC(=O)[C@H](Cc2c[nH]cn2)NC1=O [Analogue 26] (Ac-[Nle]DH[dF]RWKG-NH2; lactam 2-7) | – | – | – | – | p(+) | 5.5 |
| CCCC[C@H](NC(C)=O)C(=O)N[C@H]1CC(=O)NCCCC[C@@H](C(=O)NCC(=O)N2CCC[C@H]2C(N)=O)NC(=O)[C@H](Cc2c[nH]c3ccccc23)NC(=O)[C@H](CCCNC(=N)N)NC(=O)[C@@H](Cc2ccccc2)NC(=O)[C@H](Cc2c[nH]cn2)NC1=O [Analogue 27] (Ac-[Nle]DH[dF]RWKGP-NH2; lactam 2-7) | – | – | – | – | p(+) | 4.0 |
| CCCC[C@H](NC(C)=O)C(=O)N[C@H]1CC(=O)NCCCC[C@@H](C(=O)NCC(=O)N2CCC[C@H]2C(=O)N[C@H](C(N)=O)C(C)C)NC(=O)[C@H](Cc2c[nH]c3ccccc23)NC(=O)[C@H](CCCNC(=N)N)NC(=O)[C@@H](Cc2ccccc2)NC(=O)[C@H](Cc2c[nH]cn2)NC1=O [Analogue 28] (Ac-[Nle]DH[dF]RWKGPV-NH2; lactam 2-7) | – | – | – | – | p(+) | 2.0 |
| CCCC[C@H](NC(=O)[C@H](CO)NC(C)=O)C(=O)N[C@H]1CC(=O)NCCCC[C@@H](C(=O)NCC(=O)N2CCC[C@H]2C(=O)N[C@H](C(N)=O)C(C)C)NC(=O)[C@H](Cc2c[nH]c3ccccc23)NC(=O)[C@H](CCCNC(=N)N)NC(=O)[C@@H](Cc2ccccc2)NC(=O)[C@H](Cc2c[nH]cn2)NC1=O [Analogue 29] (Ac-S[Nle]DH[dF]RWKGPV-NH2; lactam 3-8) | – | – | – | – | p(+) | 9.0 |
